According to ChEMBL document CHEMBL3872243, “Synthesis of new morpholine-connected pyrazolidine derivatives and their antimicrobial, antioxidant, and cytotoxic activities” (2017):
In brackets after ≈: the same amount, converted by molar mass.

Tests used:
Type in all cases: functional
[1] = tested on: Klebsiella pneumoniae; experiment: Antibacterial activity against Klebsiella pneumoniae after 24 hrs by two fold dilution method
[2] = tested on: Aspergillus niger; experiment: Antifungal activity against Aspergillus niger after 24 hrs by two fold dilution method
[3] = tested on: Staphylococcus epidermidis; experiment: Antibacterial activity against Staphylococcus epidermidis after 24 hrs by two fold dilution method
[4] = Cytotoxicity against human HepG2 cells after 48 hrs by MTT assay; details: HepG2, 48 h
[5] = tested on: Candida albicans; experiment: Antifungal activity against Candida albicans after 24 hrs by two fold dilution method
[6] = tested on: Escherichia coli; experiment: Antibacterial activity against Escherichia coli after 24 hrs by two fold dilution method
[7] = Cytotoxicity against human MCF7 cells after 48 hrs by MTT assay; details: MCF7, 48 h
[8] = Antioxidant activity assessed as reduction in AAPH free radical-induced linoleic acid peroxidation activity measured at 100 ug/ml by UV spectroscopic analysis; design: scale not given: the % may be the effect or the level left
[9] = Antifungal activity against Cryptococcus neoformans after 24 hrs by two fold dilution method
[10] = Cytotoxicity against human HeLa cells after 48 hrs by MTT assay
[11] = Antifungal activity against Microsporum audouinii after 24 hrs by two fold dilution method
[12] = tested on: Staphylococcus aureus; experiment: Antibacterial activity against Staphylococcus aureus after 24 hrs by two fold dilution method
[13] = tested on: Pseudomonas aeruginosa; experiment: Antibacterial activity against Pseudomonas aeruginosa after 24 hrs by two fold dilution method
[14] = Antioxidant activity assessed as ABTS radical scavenging activity at 100 ug/ml after 30 mins

Row | Structure (SMILES) | MIC [1] [µg/mL] | MIC [2] [µg/mL] | MIC [3] [µg/mL] | GI50 [4] [µM] | LC50 [4] [µM] | TGI [4] [µM] | MIC [5] [µg/mL] | MIC [6] [µg/mL] | GI50 [7] [µM] | LC50 [7] [µM] | TGI [7] [µM] | Activity [8] [%] | MIC [9] [µg/mL] | GI50 [10] [µM] | LC50 [10] [µM] | TGI [10] [µM] | MIC [11] [µg/mL] | MIC [12] [µg/mL] | MIC [13] [µg/mL] | Activity [14] [%]
1 | O=[N+]([O-])c1ccc(N2C(O)CC(c3ccccc3)N2C(c2c[nH]c3ccccc23)N2CCOCC2)c([N+](=O)[O-])c1 (stereo not given) | > 100 | 16 (≈ 29.4 µM) | > 100 | 15.9 | 54.8 | 38.2 | 32 (≈ 58.8 µM) | > 100 | 24.4 | 76.3 | 59.3 | 34.6 | 64 (≈ 118 µM) | 34.2 | > 100 | 72.1 | 8 (≈ 14.7 µM) | 1 (≈ 1.84 µM) | 8 (≈ 14.7 µM) | 27.8
2 | O=[N+]([O-])c1ccc(N2C(O)CC(c3ccccc3)N2C(c2ccco2)N2CCOCC2)c([N+](=O)[O-])c1 (stereo not given) | 16 (≈ 32.3 µM) | 2 (≈ 4.04 µM) | 16 (≈ 32.3 µM) | 41.4 | > 100 | 64.8 | 16 (≈ 32.3 µM) | 64 (≈ 129 µM) | 32.1 | 82 | 56.4 | 42.8 | > 100 | 30.8 | 80.7 | 52.1 | 0.5 (≈ 1.01 µM) | 20 (≈ 40.4 µM) | 64 (≈ 129 µM) | 20.7
3 | O=[N+]([O-])c1ccc(N2C(O)CC(c3ccccc3)N2C(c2ccc(O)cc2)N2CCOCC2)c([N+](=O)[O-])c1 (stereo not given) | 8 (≈ 15.3 µM) | > 100 |  | 36.3 | > 100 | 65.3 |  | > 100 |  | > 100 |  | 75.4 |  | 41.3 | > 100 | 87.2 | 8 (≈ 15.3 µM) |  | 15 (≈ 28.8 µM) | 81.6
4 | O=[N+]([O-])c1ccc(N2C(O)CC(c3ccccc3)N2C(c2ccc3c(c2)OCO3)N2CCOCC2)c([N+](=O)[O-])c1 (stereo not given) | 64 (≈ 116 µM) | 8 (≈ 14.6 µM) | > 100 | 21.3 | 62.1 | 41 | 16 (≈ 29.1 µM) | > 100 | 12.9 | 87.2 | 45.3 | 29.8 | 64 (≈ 116 µM) | 52.9 | > 100 | 81.3 | 32 (≈ 58.2 µM) | > 100 | 2 (≈ 3.64 µM) | 34.5
5 | COc1cccc2c1C(=O)c1c(O)c3c(c(O)c1C2=O)C[C@@](O)(C(=O)CO)C[C@@H]3O[C@H]1C[C@H](N)[C@H](O)[C@H](C)O1 [DOXORUBICIN] |  |  |  | 0.01 |  | 0.13 |  |  | 0.02 |  | 0.21 |  |  | 0.05 |  | 0.41 |  |  |  | 
6 | O=[N+]([O-])c1ccc(N2C(O)CC(c3ccccc3)N2C(c2ccccn2)N2CCOCC2)c([N+](=O)[O-])c1 (stereo not given) | 4 (≈ 7.9 µM) | > 100 | > 100 | 29.1 | 67.5 | 46.8 | 8 (≈ 15.8 µM) | > 100 | 18.6 | 52.3 | 41.8 | 51.3 | 8 (≈ 15.8 µM) | 21.6 | 87.4 | 54.7 | > 100 | 18 (≈ 35.5 µM) | 32 (≈ 63.2 µM) | 16.8
7 | O=C(O)c1cn(C2CC2)c2cc(N3CCNCC3)c(F)cc2c1=O [CIPROFLOXACIN] | 2 (≈ 6.04 µM) |  | 4 (≈ 12.1 µM) |  |  |  |  |  |  |  |  |  |  |  |  |  |  | 0.5 (≈ 1.51 µM) | 1 (≈ 3.02 µM) | 
8 | O=[N+]([O-])c1ccc(C(N2CCOCC2)N2C(c3ccccc3)CC(O)N2c2ccc([N+](=O)[O-])cc2[N+](=O)[O-])cc1 (stereo not given) |  |  | 2 (≈ 3.63 µM) | 49 | > 100 | 77.3 |  | 64 (≈ 116 µM) | 20.8 | > 100 | 59.3 | 47.9 | 32 (≈ 58.1 µM) | 8.9 | 43.9 | 16.8 | 32 (≈ 58.1 µM) | 1 (≈ 1.82 µM) |  | 58.3
